Laboratory results as given in patent publication US20250295646A1, “METHODS OF USE OF T-TYPE CALCIUM CHANNEL MODULATORS” (Praxis Precision Medicines, Inc., priority 2022, published 2025).

System: adult patients with essential tremor
Experiment: Example 16: video-reviewed TETRAS performance subscale and upper limb score; on TETRAS Performance Subscale Total Score by Video Review, Change from Baseline, Mean (SD): test concentration or dose not given here; on TETRAS Performance Subscale Total Score by Video Review, Change from Baseline, Median: test concentration or dose not given here; on TETRAS Performance Subscale Total Score by Video Review, Mean (SD): test concentration or dose not given here; on TETRAS Performance Subscale Total Score by Video Review, Median: test concentration or dose not given here
Assay type: in vivo, human
From the text: Video-reviewed TETRAS Analyses Video reviewed TETRAS assessments were generally consistent with those conducted at the clinic. Video reviewed TETRAS performance subscale total scores are summarized for Part A, the open-label titration phase of Part B, and the randomized withdrawal phase of Part B in Table 42, Table 43, and Table 44.
Video reviewed upper limb score values were generally consistent with those conducted at the clinic and are summarized for Part A, the open-label titration phase of Part B, and the randomized withdrawal phase of Part B in Table 45, Table 46, and Table 47, respectively.

[1] = Day 21, Part B Open-Label Titration Phase (N = 17)
[2] = Day 21, Part B, Formula (I) arm (N = 6)
[3] = Day 42 6 hours Post - dose (Randomization Baseline), Part B, Formula (I) arm (N = 6)
[4] = Day 42, 6 hours Post - dose, Part B Open-Label Titration Phase (N = 17)
[5] = Day 42, 6 hours Post - dose, Part B, Formula (I) arm (N = 6)
[6] = Day 42, Pre - dose, Part B Open-Label Titration Phase (N = 17)
[7] = Day 42, Pre - dose, Part B, Formula (I) arm (N = 6)
[8] = Day 56, Part B, Formula (I) arm (N = 6)
[9] = Day 70, Part B, Formula (I) arm (N = 6)

CC(C)(C)NC(=O)CN1CCC(CNC(=O)c2cc(F)cc(Cl)c2)CC1 [compound of formula (I), N-((1-(2-(tert-butylamino)-2-oxoethyl)piperidin-4-yl)methyl)-3-chloro-5-fluorobenzamide]
TETRAS Upper Limb Score by Video Review, Mean (SD) [1]: 9.63 (2.478) | TETRAS Upper Limb Score by Video Review, Median [1]: 10.00 | TETRAS Upper Limb Score by Video Review, Percentage Change from Baseline in Tremor Amplitude, Mean (SD) [1]: −9.74 (24.458) % | TETRAS Upper Limb Score by Video Review, Percentage Change from Baseline in Tremor Amplitude, Median [1]: −9.15% | TETRAS Performance Subscale Total Score by Video Review, Change from Baseline, Mean (SD) [2]: 0.08 (2.396) | TETRAS Performance Subscale Total Score by Video Review, Change from Baseline, Median [2]: 0.50 | TETRAS Performance Subscale Total Score by Video Review, Mean (SD) [2]: 22.42 (3.277) | TETRAS Performance Subscale Total Score by Video Review, Median [2]: 22.00 | TETRAS Performance Subscale Total Score by Video Review, Percentage Change from Baseline in Tremor Amplitude, Mean (SD) [2]: 0.67 (15.665) % | TETRAS Performance Subscale Total Score by Video Review, Percentage Change from Baseline in Tremor Amplitude, Median [2]: 3.53% | TETRAS Upper Limb Score by Video Review, Change from Baseline, Mean (SD) [2]: 0.17 (1.211) | TETRAS Upper Limb Score by Video Review, Change from Baseline, Median [2]: 0.00 | TETRAS Upper Limb Score by Video Review, Mean (SD) [2]: 10.08 (0.861) | TETRAS Upper Limb Score by Video Review, Median [2]: 10.00 | TETRAS Upper Limb Score by Video Review, Percentage Change from Baseline in Tremor Amplitude, Mean (SD) [2]: 2.64 (20.424) % | TETRAS Upper Limb Score by Video Review, Percentage Change from Baseline in Tremor Amplitude, Median [2]: 0.00% | TETRAS Performance Subscale Total Score by Video Review, Mean (SD) [3]: 19.92 (5.229) | TETRAS Performance Subscale Total Score by Video Review, Median [3]: 20.25 | TETRAS Upper Limb Score by Video Review, Mean (SD) [3]: 8.42 (2.417) | TETRAS Upper Limb Score by Video Review, Median [3]: 9.25 | TETRAS Performance Subscale Total Score by Video Review, Change from Baseline, Mean (SD) [4]: −3.18 (3.133) | TETRAS Performance Subscale Total Score by Video Review, Change from Baseline, Median [4]: −3.50 | TETRAS Performance Subscale Total Score by Video Review, Mean (SD) [4]: 20.32 (7.564) | TETRAS Performance Subscale Total Score by Video Review, Median [4]: 20.00 | TETRAS Performance Subscale Total Score by Video Review, Percentage Change from Baseline in Tremor Amplitude, Mean (SD) [4]: −18.90 (18.026) % | TETRAS Performance Subscale Total Score by Video Review, Percentage Change from Baseline in Tremor Amplitude, Median [4]: −22.26% | TETRAS Upper Limb Score by Video Review, Change from Baseline, Mean (SD) [4]: −1.77 (1.633) | TETRAS Upper Limb Score by Video Review, Change from Baseline, Median [4]: −1.50 | TETRAS Upper Limb Score by Video Review, Mean (SD) [4]: 8.95 (2.902) | TETRAS Upper Limb Score by Video Review, Median [4]: 9.00 | TETRAS Upper Limb Score by Video Review, Percentage Change from Baseline in Tremor Amplitude, Mean (SD) [4]: −26.26 (22.691) % | TETRAS Upper Limb Score by Video Review, Percentage Change from Baseline in Tremor Amplitude, Median [4]: −25.01% | TETRAS Performance Subscale Total Score by Video Review, Change from Baseline, Mean (SD) [5]: −2.42 (3.484) | TETRAS Performance Subscale Total Score by Video Review, Change from Baseline, Median [5]: −3.00 | TETRAS Performance Subscale Total Score by Video Review, Percentage Change from Baseline in Tremor Amplitude, Mean (SD) [5]: −14.27 (20.962) % | TETRAS Performance Subscale Total Score by Video Review, Percentage Change from Baseline in Tremor Amplitude, Median [5]: −19.21% | TETRAS Upper Limb Score by Video Review, Change from Baseline, Mean (SD) [5]: −1.50 (2.025) | TETRAS Upper Limb Score by Video Review, Change from Baseline, Median [5]: −1.25 | TETRAS Upper Limb Score by Video Review, Percentage Change from Baseline in Tremor Amplitude, Mean (SD) [5]: −21.52 (28.723) % | TETRAS Upper Limb Score by Video Review, Percentage Change from Baseline in Tremor Amplitude, Median [5]: −21.24% | TETRAS Performance Subscale Total Score by Video Review, Change from Baseline, Mean (SD) [6]: −2.32 (2.272) | TETRAS Performance Subscale Total Score by Video Review, Change from Baseline, Median [6]: −2.50 | TETRAS Performance Subscale Total Score by Video Review, Mean (SD) [6]: 21.18 (7.916) | TETRAS Performance Subscale Total Score by Video Review, Median [6]: 19.50 | TETRAS Performance Subscale Total Score by Video Review, Percentage Change from Baseline in Tremor Amplitude, Mean (SD) [6]: −14.41 (13.541) % | TETRAS Performance Subscale Total Score by Video Review, Percentage Change from Baseline in Tremor Amplitude, Median [6]: −16.46% | TETRAS Upper Limb Score by Video Review, Change from Baseline, Mean (SD) [6]: −1.41 (1.429) | TETRAS Upper Limb Score by Video Review, Change from Baseline, Median [6]: −1.00 | TETRAS Upper Limb Score by Video Review, Mean (SD) [6]: 9.32 (2.943) | TETRAS Upper Limb Score by Video Review, Median [6]: 9.50 | TETRAS Upper Limb Score by Video Review, Percentage Change from Baseline in Tremor Amplitude, Mean (SD) [6]: −21.20 (19.707) % | TETRAS Upper Limb Score by Video Review, Percentage Change from Baseline in Tremor Amplitude, Median [6]: −17.46% | TETRAS Performance Subscale Total Score by Video Review, Change from Baseline, Mean (SD) [7]: −1.33 (2.338) | TETRAS Performance Subscale Total Score by Video Review, Change from Baseline, Median [7]: −1.00 | TETRAS Performance Subscale Total Score by Video Review, Mean (SD) [7]: 21.00 (5.263) | TETRAS Performance Subscale Total Score by Video Review, Median [7]: 22.25 | TETRAS Performance Subscale Total Score by Video Review, Percentage Change from Baseline in Tremor Amplitude, Mean (SD) [7]: −8.23 (14.278) % | TETRAS Performance Subscale Total Score by Video Review, Percentage Change from Baseline in Tremor Amplitude, Median [7]: −6.88% | TETRAS Upper Limb Score by Video Review, Change from Baseline, Mean (SD) [7]: −0.75 (0.935) | TETRAS Upper Limb Score by Video Review, Change from Baseline, Median [7]: −0.50 | TETRAS Upper Limb Score by Video Review, Mean (SD) [7]: 9.17 (1.862) | TETRAS Upper Limb Score by Video Review, Median [7]: 9.25 | TETRAS Upper Limb Score by Video Review, Percentage Change from Baseline in Tremor Amplitude, Mean (SD) [7]: −12.31 (14.247) % | TETRAS Upper Limb Score by Video Review, Percentage Change from Baseline in Tremor Amplitude, Median [7]: −9.15% | TETRAS Performance Subscale Total Score by Video Review, Change from Baseline, Mean (SD) [8]: −1.33 (4.771) | TETRAS Performance Subscale Total Score by Video Review, Change from Baseline, Median [8]: −0.50 | TETRAS Performance Subscale Total Score by Video Review, Change from Randomization, Mean (SD) [8]: 1.08 (2.311) | TETRAS Performance Subscale Total Score by Video Review, Change from Randomization, Median [8]: 0.75 | TETRAS Performance Subscale Total Score by Video Review, Mean (SD) [8]: 21.00 (6.542) | TETRAS Performance Subscale Total Score by Video Review, Median [8]: 21.75 | TETRAS Performance Subscale Total Score by Video Review, Percentage Change from Baseline in Tremor Amplitude, Mean (SD) [8]: −6.83 (27.753) % | TETRAS Performance Subscale Total Score by Video Review, Percentage Change from Baseline in Tremor Amplitude, Median [8]: −3.23% | TETRAS Performance Subscale Total Score by Video Review, Percentage Change from Randomization in Tremor Amplitude, Mean (SD) [8]: 6.68 (14.469) % | TETRAS Performance Subscale Total Score by Video Review, Percentage Change from Randomization in Tremor Amplitude, Median [8]: 5.12% | TETRAS Upper Limb Score by Video Review, Change from Baseline, Mean (SD) [8]: −0.75 (2.115) | TETRAS Upper Limb Score by Video Review, Change from Baseline, Median [8]: −0.25 | TETRAS Upper Limb Score by Video Review, Change from Randomization, Mean (SD) [8]: 0.75 (0.612) | TETRAS Upper Limb Score by Video Review, Change from Randomization, Median [8]: 0.50 | TETRAS Upper Limb Score by Video Review, Mean (SD) [8]: 9.17 (2.658) | TETRAS Upper Limb Score by Video Review, Median [8]: 10.00 | TETRAS Upper Limb Score by Video Review, Percentage Change from Baseline in Tremor Amplitude, Mean (SD) [8]: −10.13 (31.224) % | TETRAS Upper Limb Score by Video Review, Percentage Change from Baseline in Tremor Amplitude, Median [8]: −4.57% | TETRAS Upper Limb Score by Video Review, Percentage Change from Randomization in Tremor Amplitude, Mean (SD) [8]: 12.91 (10.020) % | TETRAS Upper Limb Score by Video Review, Percentage Change from Randomization in Tremor Amplitude, Median [8]: 9.15% | TETRAS Performance Subscale Total Score by Video Review, Change from Baseline, Mean (SD) [9]: 0.60 (2.104) | TETRAS Performance Subscale Total Score by Video Review, Change from Baseline, Median [9]: 0.50 | TETRAS Performance Subscale Total Score by Video Review, Change from Randomization, Mean (SD) [9]: 3.60 (3.343) | TETRAS Performance Subscale Total Score by Video Review, Change from Randomization, Median [9]: 4.50 | TETRAS Performance Subscale Total Score by Video Review, Mean (SD) [9]: 22.00 (4.962) | TETRAS Performance Subscale Total Score by Video Review, Median [9]: 22.50 | TETRAS Performance Subscale Total Score by Video Review, Percentage Change from Baseline in Tremor Amplitude, Mean (SD) [9]: 3.98 (13.794) % | TETRAS Performance Subscale Total Score by Video Review, Percentage Change from Baseline in Tremor Amplitude, Median [9]: 3.53% | TETRAS Performance Subscale Total Score by Video Review, Percentage Change from Randomization in Tremor Amplitude, Mean (SD) [9]: 21.30 (20.204) % | TETRAS Performance Subscale Total Score by Video Review, Percentage Change from Randomization in Tremor Amplitude, Median [9]: 27.66% | TETRAS Upper Limb Score by Video Review, Change from Baseline, Mean (SD) [9]: 0.30 (0.908) | TETRAS Upper Limb Score by Video Review, Change from Baseline, Median [9]: 0.50 | TETRAS Upper Limb Score by Video Review, Change from Randomization, Mean (SD) [9]: 1.80 (2.139) | TETRAS Upper Limb Score by Video Review, Change from Randomization, Median [9]: 2.50 | TETRAS Upper Limb Score by Video Review, Mean (SD) [9]: 9.80 (1.924) | TETRAS Upper Limb Score by Video Review, Median [9]: 9.50 | TETRAS Upper Limb Score by Video Review, Percentage Change from Baseline in Tremor Amplitude, Mean (SD) [9]: 5.17 (15.525) % | TETRAS Upper Limb Score by Video Review, Percentage Change from Baseline in Tremor Amplitude, Median [9]: 9.15% | TETRAS Upper Limb Score by Video Review, Percentage Change from Randomization in Tremor Amplitude, Mean (SD) [9]: 25.58 (31.214) % | TETRAS Upper Limb Score by Video Review, Percentage Change from Randomization in Tremor Amplitude, Median [9]: 38.10%
